Results taken from patent EP1066315B1 (University of Dundee, priority 1998, dated 2008).
“Also recorded” adds a separate entry of the source. Residues, ends and D or L forms follow the SMILES beside them. *: point of attachment. Fmoc = O=C(OCC1c2ccccc2-c2ccccc21)*

Test system: EBV-transformed B cells / autologous TTCF-specific T cell clones
Experiment: TTCF antigen presentation by EBV-transformed B cells, read out as proliferation of autologous T cell clones
Format: cell-based, human
Experimental: The invention will now be described by reference to the following Examples and Figures wherein • Figure 1: Processing of TTCF by a leupeptin-insensitive cysteine endopeptidase activity. (a) TTCF was digested in vitro in the presence of disrupted lysosomes (1-2 µg) in the presence or absence of iodoacetamide (1 mM), leupeptin, E64 or pepstatin (each at 0.1 mg/ml). Digestions were in 0.1 M NH4 acetate at pH 4.5 or Na2HPO4, pH 6.0 or 7.0. After 4 hours at 37°C, the reactions were separated by Tris-tricine SDS-PAGE and stained with Coomassie Blue. (b) Cleavage sites: TTCF digestion products were separated by SDS PAGE and electrophoretically transferred to nitrocellulose membrane. Individual fragments numbered 1-6 were subjected to 5 cycles of Edman degradation. N-terminal sequence obtained is shown in bold following upstream residues from TTCF (tetanus toxin numbering). The N-terminal sequence of His-tagged TTCF was obtained for fragments 1 and 3. (c) Residues Asn 1184 and Glu 1184 in TTCF were mutated to alanine (see Methods) and digestions performed as before. The mutation abolishes cleavage at the mutated site but not at the first site (doublet at 47 kD). In this experiment cleavage of the third site was minimal. • Figure 2: TTCF is processed by an asparaginyl endopeptidase. (a) Chromatography of the TTCF processing activity on Mono-S resin. Fractions eluted by NaCl gradient were incubated with the substrates Z-Ala-Ala-Asn-NHMec or Z-Phe-Arg-NHMec in the presence or absence of E64 (trans-epoxysuccinyl-L-leucylamido-(4-guanidino)butane). […] (c) Each fraction was analysed by SDS-PAGE and Western blotting. […] Release of 7-amino-4-methyl coumarin was measured after 10, 20 or 30 minutes. […] At different times the cells were washed, fixed in 0.05 % glutaraldehyde and antigen presentation measured using proliferation of different autologous TTCF-specific T cell clones. c, AEP pre-processing of TTCF speeds antigen presentation. […] Presentation was measured after 60 minutes of antigen pulsing using EBV B cells. […]

For `C[C@H](NC(=O)OCC1c2ccccc2-c2ccccc21)C(=O)N[C@@H](CCC(=O)O)C(=O)N[C@@H](CC(N)=O)C(=O)N[C@@H](CCCCN)C(N)=O` [AENK, Ala-Glu-Asn-Lys-NH] (Fmoc-AENK-NH2), the “presentation of AEP-pre-processed antigen” value (EBV B cells, TTCF pre-processed with AEP, 60 minutes of antigen pulsing, Fig 9d) was “no longer inhibited; also recorded: did not block” and the “antigen presentation by EBV-B cells” value (EBV-B cells from donor, 2 mg/ml peptide, Fig 9b) was “blocked antigen presentation by EBV-B cells very effectively”.
